Results reported in ChEMBL document CHEMBL3885861, “Open TG-GATES”.

Species on record: Rattus norvegicus
Experiment: Open TG-GATES - Regimen: Single
Type: toxicity, organism-based, Sprague-Dawley
Parameters: regimen Single, gender Male, age 6 weeks
Settings: in vivo, po, 15 mg/kg, route gavage, dose level High; for APTT / Bas / Eos / Fbg / Hb / Ht / Lym / MCH / MCHC / MCV / Mono / Neu / PT / Plat / RBC / Ret / WBC: tissue Blood; for KIDNEY_L / KIDNEY_R / KIDNEY_TOTAL: tissue Kidney; for ALP / ALT / AST / CRE / Cl / DBIL / GLC / IP / K / LDH / Na / PL / RALB / TBIL / TC / TG / TP / gamma-GTP: tissue Plasma

COc1cc2c(c(OC)c1OC)-c1ccc(OC)c(=O)cc1[C@@H](NC(C)=O)CC2 [COLCHICINE]
TERMINAL_BW (3 h): 219.9 g
APTT (3 h): 17.2 s
Bas (3 h): 0%
Eos (3 h): 0.8%
Fbg (3 h): 212.4 mg/dL
Hb (3 h): 13.4 g/dL
Ht (3 h): 40.8%
Lym (3 h): 76.2%
MCH (3 h): 21.9 pg
MCHC (3 h): 33%
MCV (3 h): 66.3 fL
Mono (3 h): 13%
Neu (3 h): 10%
PT (3 h): 12.3 s
Plat (3 h): 111.2 x10_4/uL
RBC (3 h): 614.8 x10_4/ul
Ret (3 h): 9.9%
WBC (3 h): 105.1 x10_2/uL
KIDNEY_L (3 h): 1 g
KIDNEY_R (3 h): 1 g
KIDNEY_TOTAL (3 h): 2 g
ALP (3 h): 859.4 IU/L
ALT (3 h): 59.8 IU/L
AST (3 h): 152.8 IU/L
CRE (3 h): 0.5 mg/dL
Cl (3 h): 105.2 meq/L
DBIL (3 h): 0.03 mg/dL
GLC (3 h): 184.8 mg/dL
IP (3 h): 9.3 mg/dL
K (3 h): 4.6 meq/L
LDH (3 h): 377.8 IU/L
Na (3 h): 138.6 meq/L
PL (3 h): 113.4 mg/dL
RALB (3 h): 3.7 g/dL
TBIL (3 h): 0.4 mg/dL
TC (3 h): 75.2 mg/dL
TG (3 h): 21.4 mg/dL
TP (3 h): 5.6 g/dL
gamma-GTP (3 h): 2.4 IU/L
TERMINAL_BW (6 h): 220.6 g
APTT (6 h): 17.3 s
Bas (6 h): 0%
Eos (6 h): 0.8%
Fbg (6 h): 215 mg/dL
Hb (6 h): 14.5 g/dL
Ht (6 h): 44.5%
Lym (6 h): 69.6%
MCH (6 h): 21.2 pg
MCHC (6 h): 32.7%
MCV (6 h): 65 fL
Mono (6 h): 6.2%
Neu (6 h): 24%
PT (6 h): 14.1 s
Plat (6 h): 109.9 x10_4/uL
RBC (6 h): 684.6 x10_4/ul
Ret (6 h): 8.3%
WBC (6 h): 68.3 x10_2/uL
KIDNEY_L (6 h): 1 g
KIDNEY_R (6 h): 1 g
KIDNEY_TOTAL (6 h): 2 g
ALP (6 h): 1105.6 IU/L
ALT (6 h): 257.8 IU/L
AST (6 h): 651.4 IU/L
CRE (6 h): 0.5 mg/dL
Cl (6 h): 104.2 meq/L
DBIL (6 h): 0.1 mg/dL
GLC (6 h): 174.8 mg/dL
IP (6 h): 9.5 mg/dL
K (6 h): 4.8 meq/L
LDH (6 h): 1373 IU/L
Na (6 h): 139.8 meq/L
PL (6 h): 101.2 mg/dL
RALB (6 h): 3.7 g/dL
TBIL (6 h): 0.5 mg/dL
TC (6 h): 66.8 mg/dL
TG (6 h): 12.2 mg/dL
TP (6 h): 5.5 g/dL
gamma-GTP (6 h): 2 IU/L
TERMINAL_BW (9 h): 217.2 g
APTT (9 h): 17.8 s
Bas (9 h): 0%
Eos (9 h): 0.6%
Fbg (9 h): 203.8 mg/dL
Hb (9 h): 14.9 g/dL
Ht (9 h): 45.2%
Lym (9 h): 50.6%
MCH (9 h): 21.1 pg
MCHC (9 h): 32.8%
MCV (9 h): 64.3 fL
Mono (9 h): 12.2%
Neu (9 h): 36.8%
PT (9 h): 14.8 s
Plat (9 h): 99 x10_4/uL
RBC (9 h): 704.2 x10_4/ul
Ret (9 h): 7.7%
WBC (9 h): 52.6 x10_2/uL
KIDNEY_L (9 h): 1 g
KIDNEY_R (9 h): 1 g
KIDNEY_TOTAL (9 h): 1.9 g
ALP (9 h): 1469.6 IU/L
ALT (9 h): 302.8 IU/L
AST (9 h): 623.8 IU/L
CRE (9 h): 0.5 mg/dL
Cl (9 h): 101.8 meq/L
DBIL (9 h): 0.3 mg/dL
GLC (9 h): 171 mg/dL
IP (9 h): 8.1 mg/dL
K (9 h): 4.7 meq/L
LDH (9 h): 1091.2 IU/L
Na (9 h): 137 meq/L
PL (9 h): 126 mg/dL
RALB (9 h): 3.8 g/dL
TBIL (9 h): 0.6 mg/dL
TC (9 h): 86.2 mg/dL
TG (9 h): 9.4 mg/dL
TP (9 h): 5.5 g/dL
gamma-GTP (9 h): 2 IU/L
TERMINAL_BW (24 h): 208.7 g
APTT (24 h): 18 s
Bas (24 h): 0%
Eos (24 h): 0.6%
Fbg (24 h): 171 mg/dL
Hb (24 h): 15.6 g/dL
Ht (24 h): 47.7%
Lym (24 h): 73.4%
MCH (24 h): 20.5 pg
MCHC (24 h): 32.9%
MCV (24 h): 62.4 fL
Mono (24 h): 9.8%
Neu (24 h): 16.2%
PT (24 h): 12.5 s
Plat (24 h): 121.1 x10_4/uL
RBC (24 h): 763.8 x10_4/ul
Ret (24 h): 6.3%
WBC (24 h): 78.2 x10_2/uL
KIDNEY_L (24 h): 1 g
KIDNEY_R (24 h): 1 g
KIDNEY_TOTAL (24 h): 2 g
ALP (24 h): 1599.2 IU/L
ALT (24 h): 160.4 IU/L
AST (24 h): 350.8 IU/L
CRE (24 h): 0.6 mg/dL
Cl (24 h): 104 meq/L
DBIL (24 h): 0.1 mg/dL
GLC (24 h): 176 mg/dL
IP (24 h): 7.8 mg/dL
K (24 h): 5.2 meq/L
LDH (24 h): 172.4 IU/L
Na (24 h): 136.8 meq/L
PL (24 h): 116.4 mg/dL
RALB (24 h): 3.3 g/dL
TBIL (24 h): 0.5 mg/dL
TC (24 h): 60.8 mg/dL
TG (24 h): 16.8 mg/dL
TP (24 h): 5.1 g/dL
gamma-GTP (24 h): 1.4 IU/L
